Columns and labels:
Coronary artery = assay: Vasodilating activity: increase in coronary blood flow in anesthetized dogs; type: in vivo, Hybrid adult dogs; details: i.v., n = 3 anesthetized dogs, vs. prior to administration
Method: (§1) A suspension of the compounds produced in the above examples in 0.5% HCO 60 solution was administered through the lateroradial dermal vein. […] As a control drug was employed Cinnepazied (1-[(1-pyrrolidinylcarbonyl)methyl]-4-(3,4,5-trimethyoxycinnamoyl)piperazine).

Vertebral artery = assay: Vasodilating activity: increase in vertebral blood flow in anesthetized dogs; type: in vivo, Hybrid adult dogs; details: i.v., n = 3 anesthetized dogs, vs. prior to administration
Method: as §1

SMILES: COc1cc(C=CC(=O)N2CCN(CC(=O)N3CCCC3)CC2)cc(OC)c1OC [Cinnepazid, 1-[(1-pyrrolidinylcarbonyl)methyl]-4-(3,4,5-trimethyoxycinnamoyl)piperazine, reference compound]
- Increase in blood flow (Δ% ± SE), Coronary artery (Coronary artery; 0.3 mg/kg): 2.1 ± 0.8 Δ%
- Increase in blood flow (Δ% ± SE), Coronary artery (Coronary artery; 1.0 mg/kg): 10.0 ± 0.5 Δ%
- Increase in blood flow (Δ% ± SE), Vertebral artery (Vertebral artery; 0.3 mg/kg): 1.5 ± 0.4 Δ%
- Increase in blood flow (Δ% ± SE), Vertebral artery (Vertebral artery; 1.0 mg/kg): 5.6 ± 0.2 Δ%

SMILES: COc1cc(/C=C/C=C/C(=O)NCCO[N+](=O)[O-])cc(OC)c1OC [Example 1, N-(β-hydroxyethyl)-5-(3,4,5-trimethoxyphenyl)-2,4-pentadienoic acid amide nitrate]
- Increase in blood flow (Δ% ± SE), Coronary artery (Coronary artery; 0.3 mg/kg): 3.6 ± 0.2 Δ%
- Increase in blood flow (Δ% ± SE), Coronary artery (Coronary artery; 1.0 mg/kg): 28.6 ± 1.9 Δ%
- Increase in blood flow (Δ% ± SE), Vertebral artery (Vertebral artery; 0.3 mg/kg): 50.0 ± 2.4 Δ%
- Increase in blood flow (Δ% ± SE), Vertebral artery (Vertebral artery; 1.0 mg/kg): 83.3 ± 7.5 Δ%

SMILES: COc1cc(/C=C/C(=O)NCCO[N+](=O)[O-])cc(OC)c1OC [Example 2, N-(β-hydroxyethyl)-3,4,5-trimethoxycinnamic acid amide nitrate]
- Increase in blood flow (Δ% ± SE), Coronary artery (Coronary artery; 0.3 mg/kg): 3.8 ± 0.5 Δ%
- Increase in blood flow (Δ% ± SE), Coronary artery (Coronary artery; 1.0 mg/kg): 22.9 ± 1.5 Δ%
- Increase in blood flow (Δ% ± SE), Vertebral artery (Vertebral artery; 0.3 mg/kg): 35.0 ± 1.7 Δ%
- Increase in blood flow (Δ% ± SE), Vertebral artery (Vertebral artery; 1.0 mg/kg): 58.3 ± 5.3 Δ%
